One may read the pA2 as the negative logarithm of the molar antagonist concentration that doubles the agonist concentration needed for the same response. A word on the Kb: it is the equilibrium dissociation constant of an antagonist, usually derived from a functional assay.

In the test the target is T1, LHRH (Rattus norvegicus, UniProt P30969).
T1 construct: endogenous in cells; host or cells: pituitary cells (own knowledge of the cited method)
T1 sequence (P30969 1-327): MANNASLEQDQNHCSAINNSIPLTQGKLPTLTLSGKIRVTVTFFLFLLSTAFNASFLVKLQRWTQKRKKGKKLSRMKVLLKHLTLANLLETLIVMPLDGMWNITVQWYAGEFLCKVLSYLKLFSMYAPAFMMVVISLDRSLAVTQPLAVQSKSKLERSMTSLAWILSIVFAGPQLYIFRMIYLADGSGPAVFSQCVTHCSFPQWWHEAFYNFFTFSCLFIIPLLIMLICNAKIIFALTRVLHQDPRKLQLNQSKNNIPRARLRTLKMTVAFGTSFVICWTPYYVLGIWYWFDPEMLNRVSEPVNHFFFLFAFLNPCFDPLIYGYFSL
Nature of the test: in vitro test for LHRH antagonist potency (pA2), shift of the leuprolide response curve. Conditions: negative logarithm of antagonist concentration required to shift the response curve produced by the agonist leuprolide to two-fold higher concentration. Format: cell-based. Here is the method: Representative compounds of the present invention were evaluated in an in vitro test for LHRH antagonist potency (pA2). The test employed the method detailed in F. Haviv, et al. J. Med. Chem., 32: 2340-2344 (1989). The values of pA2 are the negative logarithms of the concentration of the particular antagonist test compound required to shift the response curve produced by the agonist leuprolide to two-fold higher concentration. (Leuprolide is the LHRH agonist having the structure 5-oxo-Pro^1 -His^2 -Trp^3 -Ser^4 -Tyr^5 -D-Leu^6 -Leu^7 -Arg^8 -Pro-^9 -NHEt and is disclosed and claimed in U.S. Pat. No. 4,005,063.) Typically pA2 values of 6.0 or greater are indicative of acceptable LHRH antagonist potency, with compounds having pA2 values of 9.0 or greater being preferred.

Where a SMILES comes first, the peptide text is derived from it. Bridges are numbered along the chain shown (N, C = ends). [ ]: non-standard residue; d: D form. The star is where a group is joined. Propanoyl(3-(4-Cl-Ph)) = O=C(CCc1ccc(Cl)cc1)*; Phenylacetyl(4-F) = O=C(Cc1ccc(F)cc1)*; Lys(iPr) = CC(C)NCCCC[C@H](N)C(=O)O; NMeY = CN[C@@H](Cc1ccc(O)cc1)C(=O)O; Nicotinoyl = O=C(c1cccnc1)*

On to “4FPhenylacetyl-c-{DGlu-Ser-NMeTyr-DLys(Nicotinyl)-Leu-Lys(N-epsilon-Isopropyl)-Pro-DLys}-NH2 [Example 15]”, for which the pA2 is reported as 5.66. For `CC(=O)N[C@@H]1CCCCNC(=O)CC[C@H](C(N)=O)NC(=O)[C@@H]2CCCN2C(=O)[C@H](CCCCNC(C)C)NC(=O)[C@H](CC(C)C)NC(=O)[C@@H](CCCCNC(=O)c2cccnc2)NC(=O)[C@H](Cc2ccc(O)cc2)N(C)C(=O)[C@H](CO)NC1=O` [Example 9, Ac-c-{DLys-Ser-NMeTyr-DLys(Nicotinyl)-Leu-Lys(N-epsilon-Isopropyl)-Pro-DGlu}-NH2] (Ac-[dK]S[NMeY][dK](Nicotinoyl)L[Lys(iPr)]P[dE]-NH2; lactam 1-8), the Kb is 6.17 nM. The same measure, in the same setting: the result for `CC(C)C[C@@H]1NC(=O)[C@@H](CCCCNC(=O)c2cccnc2)NC(=O)[C@H](Cc2ccc(O)cc2)N(C)C(=O)[C@H](CO)NC(=O)[C@H](NC(=O)Cc2ccc(F)cc2)CCCCNC(=O)CC[C@H](C(N)=O)NC(=O)[C@@H]2CCCN2C(=O)[C@H](CCCCNC(C)C)NC1=O` [Example 10, 4F-Phenylacetyl-c-{DLys-Ser-NMeTyr-DLys(Nicotinyl)-Leu-Lys(N-epsilon-Isopropyl)-Pro-DGlu}-NH2] ({Phenylacetyl(4-F)}-[dK]S[NMeY][dK](Nicotinoyl)L[Lys(iPr)]P[dE]-NH2; lactam 1-8) reads 724 nM; that for `CC(=O)N[C@@H]1CCC(=O)NCCCC[C@H](C(N)=O)NC(=O)[C@@H]2CCCN2C(=O)[C@H](CCCCNC(C)C)NC(=O)[C@H](CC(C)C)NC(=O)[C@@H](CCCCNC(=O)c2cccnc2)NC(=O)[C@H](Cc2ccc(O)cc2)N(C)C(=O)[C@H](CO)NC1=O` [Example 11, Ac-c-{DGlu-Ser-NMeTyr-DLys(Nicotinyl)-Leu-Lys(N-epsilon-Isopropyl)-Pro-DLys}-NH2] (Ac-[dE]S[NMeY][dK](Nicotinoyl)L[Lys(iPr)]P[dK]-NH2; lactam 1-8), 20.4 nM; that for `CC(C)C[C@@H]1NC(=O)[C@@H](CCCCNC(=O)c2cccnc2)NC(=O)[C@H](Cc2ccc(O)cc2)N(C)C(=O)[C@H](CO)NC(=O)[C@H](NC(=O)CCc2ccc(Cl)cc2)CCCCNC(=O)CC[C@H](C(N)=O)NC(=O)[C@@H]2CCCN2C(=O)[C@H](CCCCNC(C)C)NC1=O` [Example 13, 4ClPhenylpropionyl-c-{DLys-Ser-NMeTyr-DLys(Nicotinyl)-Leu-Lys(N-epsilon-Isopropyl)-Pro-DGlu}-NH2] ({Propanoyl(3-(4-Cl-Ph))}-[dK]S[NMeY][dK](Nicotinoyl)L[Lys(iPr)]P[dE]-NH2; lactam 1-8), 19.1 nM. Still for that read-out and setting: under `CC(C)C[C@@H]1NC(=O)[C@@H](CCCCNC(=O)c2cccnc2)NC(=O)[C@H](Cc2ccc(O)cc2)N(C)C(=O)[C@H](CO)NC(=O)[C@H](NC(=O)CCc2ccc(Cl)cc2)CCCCNC(=O)CC[C@H](C(N)=O)NC(=O)CNC(=O)[C@H](CCCCNC(C)C)NC1=O` [Example 16, 4ClPhenylpropionyl-c-{DLys-Ser-NMeTyr-DLys(Nicotinyl)-Leu-Lys(N-epsilon-Isopropyl)-Gly-DGlu}-NH2] ({Propanoyl(3-(4-Cl-Ph))}-[dK]S[NMeY][dK](Nicotinoyl)L[Lys(iPr)]G[dE]-NH2; lactam 1-8) stands 40.7 nM. Regarding `CC(C)C[C@@H]1NC(=O)[C@@H](CCCCNC(=O)c2cccnc2)NC(=O)[C@H](Cc2ccc(O)cc2)N(C)C(=O)CNC(=O)[C@H](NC(=O)CCc2ccc(Cl)cc2)CCCCNC(=O)CC[C@H](C(N)=O)NC(=O)CNC(=O)[C@H](CCCCNC(C)C)NC1=O` [Example 18, 4ClPhepropionyl-c-{DLys-Gly-NMeTyr-DLys(Nicotinyl)-Leu-Lys(N-epsilon-Isopropyl)-Gly-DGlu}-NH2] ({Propanoyl(3-(4-Cl-Ph))}-[dK]G[NMeY][dK](Nicotinoyl)L[Lys(iPr)]G[dE]-NH2; lactam 1-8), the Kb was above 1000 nM. For the molecule “Ac-D2Nal-D4ClPhe-c-{DGlu-Ser-NMeTyr-DLys(Nicotinyl)-Leu-Lys(N-epsilon-Isopropyl)-Pro-DLys}-NH2 [Example 7]”, the pA2 is 9.58. For “Ac-D2Nal-D4ClPhe-c-{DGlu-Ser-NMeTyr-DLys(Nicotinyl)-Leu-Lys(N-epsilon-Isopropyl)-Pro-Lys}-NH2 [Example 12]”, the pA2 was 9.77. Turning to “Ac-D2Nal-D4ClPhe-c-{DLys-Ser-NMeTyr-DLys(Nicotinyl)-Leu-Lys(N-epsilon-Isopropyl)-Pro-DGlu}-NH2 [Example 1]”, the pA2 was determined as 10.16. Same read-out and setting: the result for “Ac-D2Nal-D4ClPhe-c-{DLys-Ser-NMeTyr-DLys(Nicotinyl)-Leu-Lys(N-epsilon-Isopropyl)-Pro-Glu}-NH2 [Example 4]” reads 10.05; that for “Ac-D2Nal-D4ClPhe-c-{DLys-Ser-Tyr-DLys(Nicotinyl)-Leu-Lys(N-epsilon-Isopropyl)-Pro-DGlu}-NH2 [Example 8]”, 9.66; that for “Ac-D2Nal-D4ClPhe-c-{DLys-Ser-Tyr-DLys(Nicotinyl)-Leu-Lys(N-epsilon-Isopropyl)-Pro-Glu}-NH2 [Example 2]”, 9.27.

In the case of “Ac-D2Nal-D4ClPhe-c-{DOrn-Ser-NMeTyr-DLys(Nicotinyl)-Leu-Lys(N-epsilon-Isopropyl)-Pro-DGlu}-NH2 [Example 14]”, the pA2 is given as 9.52. As to “Ac-D2Nal-D4ClPhe-c-{Glu-Ser-NMeTyr-DLys(Nicotinyl)-Leu-Lys(N-epsilon-Isopropyl)-Pro-DOrn}-NH2 [Example 6]”, the pA2 is reported as 7.54.

As to “Ac-D2Nal-D4ClPhe-c-{Lys-Ser-NMeTyr-DLys(Nicotinyl)-Leu-Lys(N-epsilon-Isopropyl)-Pro-DGlu}-NH2 [Example 3]”, the pA2 turned out to be 8.73. With “Ac-D2Nal-D4ClPhe-c-{Lys-Ser-NMeTyr-DLys(Nicotinyl)-Leu-Lys(N-epsilon-Isopropyl)-Pro-Glu}-NH2 [Example 5]”, the pA2 turned out to be 8.2. Consider “NAc-D2Nal D4ClPhe-c-{DLys-Gly-NMeTyr-DLys(Nicotinyl)-Leu-Lys(N-epsilon-Isopropyl)-Gly-DGlu}-NH2 [Example 17]”, for which the pA2 is listed as 8.29. Same read-out and setting: the result for “NAc-c-{DGlu-Gly-NMeTyr-DLys(Nicotinyl)-Leu-Lys(N-epsilon-Isopropyl)-Sar-DLys}-NH2 [Example 19]” reads 5.95.

For the origin of these results see patent publication US5508383A, “Cyclic peptide LHRH antagonists” (Tap Holdings Inc., priority 1994, dated 1996).
